8 molecules from patent US20180140578A1, “METHODS AND COMPOSITIONS FOR THE DIAGNOSIS AND SELECTIVE TREATMENT OF CANCER” (Board of Regents of the University of Texas System, priority 2016, published 2018) can be followed below.

Read-outs that look alike come from different tables or passages of the source.

One experiment has as its system HCT-116 cells. The experiment in a line: Cell viability assay (CellTiter-Glo). Type of experiment: cell-based, human. The settings on record: for IC50: read-out: concentration required to reduce the viability by 50% (IC50), parental HCT-116 cells; for toxicity to HCT-116 cells: at concentrations as high as 50 μM. The method, then:
The identity for all human cell lines in this study was confirmed by short tandem repeat (STR) analysis. In addition, all human cell lines were confirmed to be mycoplasma free using a PCR based assay (Genatlantis). HCT-116 cells (ATCC) were grown in DMEM medium with 10% FBS and 2 mM L-glutamine. Lenti-X 293T cells (Clontech) were cultured in DMEM medium with 10% FBS and 2 mM L-glutamine. H1155 cells (a gift from Adi Gazdar and John Minna, UT Southwestern) were cultured in RPMI media with 5% FBS and 2 mM L-glutamine. SF9 cells (a gift from Hongtao Yu, UT Southwestern) were cultured in SF900 II serum free media (Life Technologies).
(§1) 12-point dose responses were performed on 96-well assay plates with cell plating (1500-4000 cell per well) on day 1, compound addition on day 2, and survival measurement on day 5. Compounds were diluted in DMSO before adding to the cells. Final DMSO concentration was 0.5%. Cell survival assay was performed using CellTiter-Glo Luminescent Cell Viability Assay kit (Promega) that measures cellular ATP content. Luminescence was recorded by EnVison multimode plate reader (Perkin Elmer). IC50 was determined with GraphPad Prism using baseline correction (by normalizing to DMSO control), the asymmetric (five parameter) equation and least squares fit.
Background: In ATP-based viability assays light output follows the ATP content of the culture.

The target in a further experiment is T1, RBM39-Nluc (Homo sapiens, UniProt Q14498+Q66K64).
T1 construct: Homology directed repair facilitates tagging of endogenous RBM39 by AID, 3xFLAG, AcGFP, or Nanoluciferase; endogenous in cells; host or cells: H1155 RBM39-Nluc knock-in cells
The experiment in a line: RBM39-Nluc degradation by Nano-Glo luciferase assay. The settings on record: H1155 RBM39-Nluc cells; read-out: decrease in RBM39-Nluc activity (IC50). In kind it is cell-based. The method, then:
NanoLuc was knocked-in to the 3-prime end of the RBM39 gene using the procedure described above yielding H1155 RBM39-Nluc cells. […] Luminescence was recorded by EnVision multimode plate reader (Perkin Elmer). IC50 was determined with GraphPad Prism using baseline correction (by normalizing to DMSO control), the asymmetric (five parameter) equation and least squares fit.

Experiment [1] has as its system HCT-116 cells expressing RBM39-AID and TIR1. Briefly: IAA dose response, cell viability (Cell-Titer Glo). In kind it is cell-based, human. To be noted: cells that express both RBM39-AID and TIR1. The method, then:
(§2) TIR1 cDNA with a V5 tag sequence appended to its 3′ end was cloned into pLVX IRES zsGreenland packaged into lentivirus to infect both parental HCT-116 cells and RBM39-AID-3xFLAG knock-in cells. Following lentiviral delivery of TIR1, cells with top 5% strongest zsGreen expression were sorted by FACS. TIR1-V5 expression was confirmed by western blot with HRP conjugated anti-VS (Sigma-Aldrich, V2260, 1:5000). For examination of RBM39-AID-3xFLAG degradation, cells were treated with 500 μM IAA for 4 hours before being lysed for western blotting. For IAA dose response curves, cells were treated with various concentrations of IAA for 72 hours and ATP levels were quantified using Cell-Titer Glo (Promega).

For a further experiment, the system named is RBM39-AID. The experiment in a line: Auxin induced degradation of RBM39 (western blotting). In kind it is cell-based, human. To be noted: cells that express both RBM39-AID and TIR1. The method, then: as §2
(In general: In western blotting, separated proteins are transferred to a membrane and probed.)

The subject of experiment [2] is RBM39 in UBA3 A171T HCT-116 cells. Briefly: Block of indisulam dependent RBM39 degradation, MLN4924 resistant line. Type of experiment: cell-based, human. To be noted: cells harboring UBA3 A171T mutation. An excerpt:
(§3) (B) RBM39-AID is degraded in the presence of TIR1 and IAA in HCT-116 cells. (C) IAA and TIR1 dependent degradation of RBM39-AID results in cell death. Error bars represent standard errors of the mean (SEM) (n=3). […] The effect of bortezomib is attenuated in a bortezomib resistant cell line. […] The effect of MLN4924 is abrogated in an MLN4924 resistant cell line.
(§4) The methods for generating a population of barcoded HCT-116 cells were described before (20). […] Clones that appeared after the selection was then expanded and barcode genotyped to identify six clones with unique barcodes. […] Source data for exome sequencing data is available under NCBI SRA accession SRP068238. Bortezomib resistant clones were isolated by selection with 5 nM bortezomib, and MLN4924 resistant clones with 40 nM MLN4924.
(§5) Proteins were resolved on SDS-PAGE and transferred to 0.5 μm nitrocellulose membranes. Membranes were blocked in 5% milk TBST for 30 min, and then anti-RBM39 antibodies (HPA001591, Sigma-Aldrich) were added in 5% milk (1:5000) and incubated on a shaker overnight at 4° C. After three 5 min washes with TBST, membranes were incubated with HRP-conjugated goat anti-rabbit secondary antibody (Bio-Rad) for 2 hr at room temperature. After three 5 min washes with TBST, membranes were developed with ECL (enhanced chemiluminescence) substrates.

The subject of experiment [3] is RBM39 in parental HCT-116 cells. Briefly: Block of indisulam dependent RBM39 degradation, parental cells. Type of experiment: cell-based, human.
Source text: as §3, §5

Experiment [4] has as its system RBM39 in PSMB5 A108T HCT-116 cells. The experiment in a line: Block of indisulam dependent RBM39 degradation, bortezomib resistant line. Type of experiment: cell-based, human. The settings on record: PSMB5 A108T cell line.
Source text: as §3, §4, §5

Experiment [5] has as its system indisulam resistant HCT-116 clones. Briefly: Cell viability assay, indisulam resistant clones. Type of experiment: cell-based, human. To be noted: six indisulam resistant clones. The protocol: as §4, §1
The subject of experiment [6] is HCT-116 RBM39 G268V knock-in cells. The experiment in a line: Cell viability assay, RBM39 G268V knock-in. In kind it is cell-based, human. The settings on record: at concentrations as high as 50 μM. The method, then: as §1
sgRNA targeting RBM39 (5′-[…]-3′) was cloned into the pSpCas9(BB)-2A-Puro (PX459) vector (Addgene 62988). For RBM39 G268V knock-in, 1 million HCT-116 or H1155 cells were nucleofected (using 4D-Nucleofector, Lonza) with PX459-RBM39 sgRNA and the single-stranded oligo 5′-[…] […] […] […]-3′ (SEQ ID NO: 13).

In experiment [7] the test system is DCAF15-3xFLAG and mutant RBM39Δ150 (M265L, E271Q, P272S). Briefly: RBM39Δ150 pulldown assay, mutant RBM39. In kind it is binding, human. The settings on record: M265L, E271Q, P272S. The protocol: RBM39 lacking the first 150 amino acids after the start codon (RBM39Δ150) was cloned into the pFastBac1 (Life Technologies) vector. Site-directed Mutagenesis of RBM39 was performed using Q5 site-directed mutagenesis kit (NEB). DCAF15-GST (C-terminal GST tag) and DDB1 were also cloned into pFastBac1. The production of baculovirus was carried out following vendor's instructions. Protein was expressed in SF9 cells by infection with each protein specific baculovirus, and cells were harvested 48 hr later and frozen in liquid nitrogen. For purification of RBM39Δ150, frozen cells were pulverized by cryomill and resuspended in lysis buffer (40 mM Tris, pH 7.5, 225 mM NaCl, 1× […] Protease inhibitor). The lysate was passed through a 22 gauge needle 2 times followed by ultracentrifugation at 25000 rpm for 30 min. Clarified lysate was incubated with Ni-NTA agarose (Qiagen) for 30 min with rotation at 4° C. Resin and bound protein were washed with wash buffer 1 (40 mM Tris, pH 7.5, 225 mM NaCl) followed by wash buffer 2 (40 mM Tris, pH 7.5, 20 mM imidazole, 225 mM NaCl). Proteins were eluted with elution buffer (40 mM Tris, pH 7.5, 300 mM imidazole, 225 mM NaCl) and concentrated to 0.5 ml. Concentrated proteins were then fractionated on Superdex 200 Increase 10/300 GL (GE Healthcare). […]

Experiment [8] deals with T2, DCAF15-3xFLAG and RBM39Δ150 (Homo sapiens, UniProt Q14498+Q66K64).
T2 construct: Full-length cDNAs encoding CUL4A, CUL4B, DCAF15, and DDB1 were cloned into pLVX IRES Puro; made in house; host or cells: RBM39Δ150: Sf9 (baculovirus); DCAF15-3xFLAG: anti-FLAG beads from HCT-116 or 293T cells stably expressing it
Briefly: RBM39Δ150 pulldown assay. In kind it is binding. The settings on record: wild type RBM39Δ150. The method, then: RBM39 lacking the first 150 amino acids after the start codon (RBM39Δ150) was cloned into the pFastBac1 (Life Technologies) vector. Site-directed Mutagenesis of RBM39 was performed using Q5 site-directed mutagenesis kit (NEB). DCAF15-GST (C-terminal GST tag) and DDB1 were also cloned into pFastBac1. The production of baculovirus was carried out following vendor's instructions. Protein was expressed in SF9 cells by infection with each protein specific baculovirus, and cells were harvested 48 hr later and frozen in liquid nitrogen. For purification of RBM39Δ150, frozen cells were pulverized by cryomill and resuspended in lysis buffer (40 mM Tris, pH 7.5, 225 mM NaCl, 1× […] Protease inhibitor). The lysate was passed through a 22 gauge needle 2 times followed by ultracentrifugation at 25000 rpm for 30 min. Clarified lysate was incubated with Ni-NTA agarose (Qiagen) for 30 min with rotation at 4° C. Resin and bound protein were washed with wash buffer 1 (40 mM Tris, pH 7.5, 225 mM NaCl) followed by wash buffer 2 (40 mM Tris, pH 7.5, 20 mM imidazole, 225 mM NaCl). Proteins were eluted with elution buffer (40 mM Tris, pH 7.5, 300 mM imidazole, 225 mM NaCl) and concentrated to 0.5 ml. Concentrated proteins were then fractionated on Superdex 200 Increase 10/300 GL (GE Healthcare). RBM39Δ150 and mutants eluted at 14.8 ml after injection and were stored at −80° C. in 40 mM Tris, pH 7.5, 225 mM NaCl. For purification of DCAF15-GST/DDB1, Sf9 cells co-infected with DCAF15-GST and DDB1 baculoviruses were lysed in PBS supplemented with 0.1% NP40, 1× […] Protease inhibitors, and 0.5 mM PMSF. The lysate was passed through a 22 gauge needle 2 times followed by centrifugation at 7000 rpm for 15 min. Clarified lysate was incubated with Glutathione Sepharose 4B resin (GE healthcare) for 30 min with rotation at 4° C. Resin was washed with PBS for three times before elution with 50 mM Tris, 10 mM glutathione, pH 8.
HCT-116 cells stably expressing DDB1-3xFLAG, CUL4A-3xFLAG, CUL4B-3xFLAG, or to DCAF15-3xFLAG were lysed in 1×PBS, 0.1% NP40, and 1× […] protease inhibitor (1 ml per […] plate). […]

T2 sequence (Q66K64 whole entry, stated change not applied): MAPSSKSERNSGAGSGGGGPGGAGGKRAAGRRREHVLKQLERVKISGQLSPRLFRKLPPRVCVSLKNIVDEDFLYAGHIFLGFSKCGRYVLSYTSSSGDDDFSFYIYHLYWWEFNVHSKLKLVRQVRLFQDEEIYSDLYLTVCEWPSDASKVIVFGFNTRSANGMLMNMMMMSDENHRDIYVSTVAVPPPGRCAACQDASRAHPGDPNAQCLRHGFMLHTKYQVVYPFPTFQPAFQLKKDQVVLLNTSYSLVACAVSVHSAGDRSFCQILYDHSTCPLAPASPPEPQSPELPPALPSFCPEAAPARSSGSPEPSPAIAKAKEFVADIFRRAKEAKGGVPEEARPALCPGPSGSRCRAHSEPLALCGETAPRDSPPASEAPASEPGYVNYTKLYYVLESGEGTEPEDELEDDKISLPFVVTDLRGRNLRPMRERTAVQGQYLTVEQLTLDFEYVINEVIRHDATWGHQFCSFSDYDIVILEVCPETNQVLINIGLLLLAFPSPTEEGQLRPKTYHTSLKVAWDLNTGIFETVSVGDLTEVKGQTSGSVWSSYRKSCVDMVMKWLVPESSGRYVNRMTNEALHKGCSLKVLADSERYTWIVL
T2 sequence (Q14498 151-530 limits assumed, stated change not applied): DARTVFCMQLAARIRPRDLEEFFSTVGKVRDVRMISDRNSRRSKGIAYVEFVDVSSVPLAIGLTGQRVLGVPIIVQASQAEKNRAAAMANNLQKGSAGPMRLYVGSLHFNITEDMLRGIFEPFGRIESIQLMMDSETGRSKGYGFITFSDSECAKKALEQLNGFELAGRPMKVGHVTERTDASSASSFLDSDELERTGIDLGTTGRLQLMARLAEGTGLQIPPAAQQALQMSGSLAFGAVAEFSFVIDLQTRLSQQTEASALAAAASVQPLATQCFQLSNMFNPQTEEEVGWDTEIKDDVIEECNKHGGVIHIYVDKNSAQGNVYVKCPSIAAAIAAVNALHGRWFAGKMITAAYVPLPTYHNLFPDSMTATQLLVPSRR
T2 sequence (Q16531 whole entry partner): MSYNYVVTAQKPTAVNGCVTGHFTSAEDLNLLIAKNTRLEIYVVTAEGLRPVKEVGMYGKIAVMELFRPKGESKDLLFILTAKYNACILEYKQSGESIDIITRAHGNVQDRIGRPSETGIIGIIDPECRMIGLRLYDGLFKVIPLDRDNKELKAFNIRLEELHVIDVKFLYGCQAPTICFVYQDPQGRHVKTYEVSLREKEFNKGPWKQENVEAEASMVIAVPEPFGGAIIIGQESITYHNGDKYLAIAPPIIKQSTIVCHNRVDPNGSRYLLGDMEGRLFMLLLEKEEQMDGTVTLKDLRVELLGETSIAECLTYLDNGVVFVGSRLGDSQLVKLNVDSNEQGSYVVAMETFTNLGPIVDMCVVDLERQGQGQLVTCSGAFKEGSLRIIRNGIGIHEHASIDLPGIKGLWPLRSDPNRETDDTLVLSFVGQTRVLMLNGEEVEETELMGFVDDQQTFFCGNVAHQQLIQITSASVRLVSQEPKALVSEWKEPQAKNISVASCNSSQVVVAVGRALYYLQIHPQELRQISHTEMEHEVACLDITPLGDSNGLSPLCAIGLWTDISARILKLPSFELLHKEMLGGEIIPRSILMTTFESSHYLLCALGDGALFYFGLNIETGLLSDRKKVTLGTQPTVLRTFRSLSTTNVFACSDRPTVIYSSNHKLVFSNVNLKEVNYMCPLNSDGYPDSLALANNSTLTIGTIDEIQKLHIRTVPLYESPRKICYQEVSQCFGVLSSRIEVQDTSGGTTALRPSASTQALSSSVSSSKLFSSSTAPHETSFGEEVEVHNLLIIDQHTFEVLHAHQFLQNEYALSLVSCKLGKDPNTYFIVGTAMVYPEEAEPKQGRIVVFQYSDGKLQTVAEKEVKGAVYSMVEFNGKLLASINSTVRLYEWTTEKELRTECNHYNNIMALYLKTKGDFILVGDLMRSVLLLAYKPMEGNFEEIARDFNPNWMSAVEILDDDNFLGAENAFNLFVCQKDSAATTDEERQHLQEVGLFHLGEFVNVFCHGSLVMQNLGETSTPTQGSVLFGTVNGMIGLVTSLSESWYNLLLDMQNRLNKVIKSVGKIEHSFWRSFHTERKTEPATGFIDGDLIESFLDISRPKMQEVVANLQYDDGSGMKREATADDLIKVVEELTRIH

For the molecule `Nc1ccc(S(=O)(=O)Nc2cnc3c(Cl)cccc3n2)cc1` [CQS, chloroquinoxaline sulfonamide], the IC50 in the experiment with HCT-116 cells (Homo sapiens) turned out to be 7.1 µM. Besides, the DC50 on RBM39-Nluc stood at 2.4 µM.
For the molecule `O=C(O)Cc1c[nH]c2ccccc12` [IAA, 3-indoleacetic acid], in experiment [1], the cell viability entry is listed as “loss in cell viability”. Also, the RBM39 levels result in the experiment with RBM39-AID is on record as “decrease in RBM39 levels”.
Regarding `NS(=O)(=O)OC[C@@H]1C[C@@H](n2ccc3c(N[C@H]4CCc5ccccc54)ncnc32)C[C@@H]1O` [MLN4924], the “effect on degradation of RBM39 in response to indisulam” value in experiment [2] is “did not observe this effect”; in experiment [3] (HCT-116 cells), “blocked the degradation of RBM39”.
Consider `CC(=O)Nc1nnc(S(N)(=O)=O)s1` [acetazolamide], for which, in the experiment on HCT-116 cells, the “toxicity to HCT-116 cells” value is reported as “non-toxic”.
On to `CC(C)C[C@H](NC(=O)[C@H](Cc1ccccc1)NC(=O)c1cnccn1)B(O)O` [bortezomib], for which, in experiment [4], the “level of bortezomib required for comparable rescue of RBM39 levels, relative to parental” value turned out to be 10 fold. Also, the “concentration of bortezomib that blocked the degradation of RBM39 in response to indisulam” value in experiment [3] (parental cells, 2 h pretreatment, then 6 h 2 μM indisulam) is 10 nM.
On to `CC(=O)O[C@H]1C(=O)[C@@]2(C)[C@H]([C@H](OC(=O)c3ccccc3)[C@]3(O)C[C@H](OC(=O)[C@H](O)[C@@H](NC(=O)c4ccccc4)c4ccccc4)C(C)=C1C3(C)C)[C@]1(OC(C)=O)CO[C@@H]1C[C@@H]2O` [paclitaxel], for which the “resistance of indisulam resistant clones to paclitaxel” value in [5] was “None of the clones were resistant”.
Turning to `O=C(NS(=O)(=O)c1ccc(Br)s1)c1ccc(Cl)cc1Cl` [tasisulam], the “sensitivity of cell line carrying RBM39 G268V” value in experiment [6] was “insensitive”. The “recruitment of indisulam-resistant mutants of RBM39 to DCAF15” value in experiment [7] is “not effectively recruited”. In addition, the IC50 in the experiment with HCT-116 cells was 6.5 µM; at RBM39-Nluc, 5.6 µM. Further, in [8], the “recruitment of RBM39Δ150 to DCAF15” value is reported as “recruit RBM39Δ150 to DCAF15 in a dose-dependent manner”.
For the molecule `CC1(C)O[C@@H]2[C@@H](CO[C@@]3(COS(N)(=O)=O)OC(C)(C)O[C@@H]23)O1` [topirimate, topiramate], the “toxicity to HCT-116 cells” value in the experiment with HCT-116 cells is reported as “non-toxic”.
